From paper PMC5453931, “Cathelicidin-trypsin inhibitor loop conjugate represents a promising antibiotic candidate with protease stability” (Scientific Reports, 2017)
Values after ≈ are worked out from the molar mass of the structure shown. Where a SMILES comes first, the peptide text is derived from it. Bridges are numbered along the chain shown (N, C = ends).

Legend:
E. coli 08040726 [1] = assay: MIC, two-fold broth microdilution (second listing of the strain number); type: cell-based; settings: Gram-negative, MH broth, 37 °C, 18 h, mean of three independent experiments in duplicates
Method: (§1) A two-fold broth microdilution method described in our previous paper was used to determine the antimicrobial activities of parental and hybrid peptides. More than 30 strains including Gram-negative bacteria, Gram-positive bacteria and fungi were used in the current assay, in which the standard strains were stored in our lab and the clinical strains were collected from local hospitals. Briefly, bacteria were incubated in Mueller-Hinton broth (MH broth) at 37 °C to exponential phase and diluted to 10^6 CFU/mL. A serial dilution of peptide sample were prepared in 96-well microtiter plates (50 μL) and mixed with equal volume of microbial inoculums (50 μL). The plate was slowly shaken in the microbial incubator, and measured at A595 after incubation at 37 °C for 18 h. The minimal concentrations at which no microbial growth occurred were recorded as MIC (minimal inhibitory concentration) values. The traditional antibiotic ampicillin was used as positive control. The results are shown in an average of the MICs obtained from three independent experiments.

Aeromonas sobria = assay: microbe, parasite or virus in culture; type: cell-based; settings: 18 h
Method: as §1

Aeromonas veronii = assay: microbe, parasite or virus in culture; type: cell-based; settings: 18 h
Method: as §1

[2] = test system: Bacillus subtilis 08042313; assay: microbe, parasite or virus in culture; type: cell-based; settings: 08042313, 18 h
Method: as §1

[3] = test system: Candida albicans 08030102; assay: microbe, parasite or virus in culture; type: cell-based; settings: 08030102, 18 h
Method: as §1

Candida glabrata 08A802 = assay: microbe, parasite or virus in culture; type: cell-based; settings: 08A802, 18 h
Method: as §1

E. Coli 08032823 = assay: microbe, parasite or virus in culture; type: cell-based; settings: 08032823, 18 h
Method: as §1

Edwardsiella tarda = assay: microbe, parasite or virus in culture; type: cell-based; settings: Aquatic pathogenic bacteria; two-fold broth microdilution, 37 °C, 18 h; mean of three independent experiments in duplicates
Method: as §1

[4] = test system: Enterococcus faecium 08052315; assay: microbe, parasite or virus in culture; type: cell-based; settings: 08052315, 18 h
Method: as §1

[5] = test system: Escherichia coli ATCC25922; assay: microbe, parasite or virus in culture; type: cell-based; settings: ATCC25922, 18 h
Method: as §1

K. Pneumoniae 08031012 = assay: microbe, parasite or virus in culture; type: cell-based; settings: Gram-negative; two-fold broth microdilution, MH broth, 37 °C, 18 h; mean of three independent experiments in duplicates
Method: as §1

K. Pneumoniae 08040202 = assay: microbe, parasite or virus in culture; type: cell-based; settings: Gram-negative; two-fold broth microdilution, MH broth, 37 °C, 18 h; mean of three independent experiments in duplicates
Method: as §1

[6] = test system: Nocardia asteroides 08052412; assay: microbe, parasite or virus in culture; type: cell-based; settings: 18 h
Method: as §1

P. Aeruginosa 08021015 = assay: microbe, parasite or virus in culture; type: cell-based; settings: Gram-negative; two-fold broth microdilution, MH broth, 37 °C, 18 h; mean of three independent experiments in duplicates
Method: as §1

Proteus mirabilis 1376 = assay: microbe, parasite or virus in culture; type: cell-based; settings: Gram-negative; two-fold broth microdilution, MH broth, 37 °C, 18 h; mean of three independent experiments in duplicates
Method: as §1

S. Aureus 08032615 = assay: microbe, parasite or virus in culture; type: cell-based; settings: Gram-positive; two-fold broth microdilution, MH broth, 37 °C, 18 h; mean of three independent experiments in duplicates
Method: as §1

S. Aureus 08032706 = assay: microbe, parasite or virus in culture; type: cell-based; settings: Gram-positive; two-fold broth microdilution, MH broth, 37 °C, 18 h; mean of three independent experiments in duplicates
Method: as §1

S. Aureus 08032810 = assay: microbe, parasite or virus in culture; type: cell-based; settings: Gram-positive; two-fold broth microdilution, MH broth, 37 °C, 18 h; mean of three independent experiments in duplicates
Method: as §1

S. Maltophilia 090223 = assay: microbe, parasite or virus in culture; type: cell-based; settings: 090223, 18 h
Method: as §1

Vibrio brasiiensis = assay: microbe, parasite or virus in culture; type: cell-based; settings: 18 h
Method: as §1

Vibrio cholerae = assay: microbe, parasite or virus in culture; type: cell-based; settings: 18 h
Method: as §1

Vibrio harveyi = assay: microbe, parasite or virus in culture; type: cell-based; settings: 18 h
Method: as §1

E. Coli 08032813 = assay: MIC, two-fold broth microdilution; type: cell-based; settings: Gram-negative; two-fold broth microdilution, MH broth, 37 °C, 18 h; mean of three independent experiments in duplicates
Method: as §1

[7] = test system: Staphylococcus epidermidis; assay: MIC, two-fold broth microdilution; type: cell-based; settings: Gram-positive; two-fold broth microdilution, MH broth, 37 °C, 18 h; mean of three independent experiments in duplicates
Method: as §1

Vibrio Parahaemolyticus = assay: MIC, two-fold broth microdilution; type: cell-based; settings: Aquatic pathogenic bacteria; two-fold broth microdilution, 37 °C, 18 h; mean of three independent experiments in duplicates
Method: as §1

trypsin = assay: Trypsin inhibition assay (NBLAN hydrolysis, Dixon method); type: biochemical; settings: 50 mM Tris–HCl pH 7.8, trypsin 0.1 mg/mL, 5 min pre-incubation at 37 °C, substrate NBLAN 48, 96, 192 μg/mL, 405 nm
Method: The inhibition effect on the hydrolysis of synthetic chromogenic substrate by trypsin was assayed in 50 mM Tris–HCl, pH 7.8 buffer at room temperature. The trypsin of final concentration of 0.1 mg/mL and different amounts of the hybrid peptide (final concentrations ranging from 0 to 0.16 μg/mL) were pre-incubated for 5 min at 37 °C. N-α-Benzoyl-DL-arginine p-nitroanilide hydrochloride (NBLAN) was used as a substrate for trypsin. The reaction was initiated by the addition of NBLAN with a final concentration of 48, 96 and 192 μg/mL, respectively. The formation of yellow product, p-nitroaniline was monitored continuously at 405 nm[61]. The inhibition constant Ki of the hybrid peptides were determined according to the method of Dixon (1953)[62].

E. coli 08040726 [8] = assay: Bacterial killing kinetic assay, colony counting; type: cell-based
Method: The bacterial killing kinetics of the hybrid peptides against E. coli 08040726 was determined by counting the changes in the viable bacterial clones after peptide treatment. The experiment was carried out according to the method described previously with minor modifications. Fresh colonies of the bacteria were incubated in MH broth at 37 °C for 12 h and diluted to 10^6 CFU/in fresh MH broth. The hybrid peptide was added to the bacterial suspension with a final concentration of 1x and 5x corresponding MICs, and incubated at 37 °C for 0, 10, 20, 30, 45, 60, 90, 120, and 180 mins. At each time point, aliquots (50 μL) were removed and diluted with fresh MH broth for 1000 times. […] of the dilutions were coated on MH agar plates, incubated overnight at 37 °C, and the viable colonies were counted. Ampicillin was used as positive control and sterile deionized water was used as negative control.

[9] = test system: established C. albicans biofilm; assay: Biofilm disruption assay, established biofilm (XTT, PI/SYBR Green I); type: cell-based
Method: TIH3F that has the best antifungal activity among the four peptides was chosen to examine the effect on the C. albicans biofilm formation and the established biofilm using previously described method with minor modifications. In the biofilm inhibition assay, after the incubation at 35 °C, C. Albicans was diluted to 1 × 10^6 CFU/mL in RPMI-1640 medium. Then 2 mL culture was added to each well of 6-well plates with coverslips at the bottom, and incubated at 35 °C in a humid chamber for 3 h. Non-adherent cells were then washed away by PBS, and series concentrations of TIH3F (0, 1, 2, 4 μg/mL) were added into the plate, with amphotericin B as control. The formation of the biofilm was determined by the XTT Cell Proliferation and Cytotoxicity Kit (KeyGEN BioTECH, Nanjing, China) after 36-h incubation. In the biofilm disruption assay, the biofilm was preformed as described above but with a longer incubation time up to 72 h. Then TIH3F and amphotericin B of series concentrations (0, 2.5, 5, 10, 25, 50 μg/mL) was added after non-adherent cells were washed out. The measurement of remaining biofilm was then determined. In order to further confirm the antifungal effect of TIH3F against C. albicans encased in biofilms, the established biofilm was treated with TIH3F (0, 5, 50 μg/mL), washed three times with PBS, and finally stained with 1 mL 1000-fold diluted PI/SYBR Green I at 30 °C in the dark for 20 min. After washing with PBS, the plate was immediately photographed with fluorescence microscope.

CC[C@H](C)[C@@H]1NC(=O)[C@H](CO)NC(=O)[C@H](CCCCN)NC(=O)[C@H]([C@@H](C)O)NC(=O)[C@H](Cc2c[nH]c3ccccc23)NC(=O)[C@@H](NC(=O)[C@H](Cc2ccccc2)NC(=O)[C@H](CCCCN)NC(=O)[C@H](CCCCN)NC(=O)[C@H](Cc2ccccc2)NC(=O)[C@H](C)NC(=O)[C@H](CCCNC(=N)N)NC(=O)[C@H](CCCNC(=N)N)NC(=O)[C@H](Cc2ccccc2)NC(=O)[C@H](CO)NC(=O)[C@H](CCCCN)NC(=O)[C@H](Cc2ccccc2)NC(=O)[C@H](Cc2ccccc2)NC(=O)[C@H](CCCNC(=N)N)NC(=O)[C@H](CCCCN)NC(=O)[C@H](Cc2ccccc2)NC(=O)[C@H](Cc2ccccc2)NC(=O)[C@@H](N)CCCCN)CSSC[C@@H](C(=O)O)NC(=O)[C@@H]2CCCN2C(=O)[C@H](CCCCN)NC(=O)[C@@H]2CCCN2C(=O)[C@@H]2CCCN2C1=O [H3TIF] (H-KFFKRFFKSFRRAFKKFCWTKSIPPKPC-OH; disulfide 18-28)
MIC E. Coli 08040726 (second line with this strain number) (E. coli 08040726 [1]): — (no detectable activity in MIC assay in dose of 200 µg/mL or in trypsin inhibition assay at concentration of 160 μg/mL)
MIC Aeromonas sobria (Aeromonas sobria): 18.75 µg/mL (≈ 5.27 µM)
MIC Aeromonas veronii (Aeromonas veronii): 9.38 µg/mL (≈ 2.64 µM)
MIC Bacillus subtilis 08042313 [2]: 37.5 µg/mL (≈ 10.5 µM)
MIC Candida albicans 08030102 [3]: 4.69 µg/mL (≈ 1.32 µM)
MIC Candida glabrata 08A802 (Candida glabrata 08A802): 9.38 µg/mL (≈ 2.64 µM)
MIC E. Coli 08032823 (E. Coli 08032823): 37.5 µg/mL (≈ 10.5 µM)
MIC Edwardsiella tarda (Edwardsiella tarda): — (no detectable activity in MIC assay in dose of 200 µg/mL or in trypsin inhibition assay at concentration of 160 μg/mL)
MIC Enterococcus faecium 08052315 [4]: 9.38 µg/mL (≈ 2.64 µM)
MIC Escherichia coli ATCC25922 [5]: 37.5 µg/mL (≈ 10.5 µM)
MIC K. Pneumoniae 08031012 (K. Pneumoniae 08031012): — (no detectable activity in MIC assay in dose of 200 µg/mL or in trypsin inhibition assay at concentration of 160 μg/mL)
MIC K. Pneumoniae 08040202 (K. Pneumoniae 08040202): — (no detectable activity in MIC assay in dose of 200 µg/mL or in trypsin inhibition assay at concentration of 160 μg/mL)
MIC Nocardia asteroides 08052412 [6]: 4.69 µg/mL (≈ 1.32 µM)
MIC P. Aeruginosa 08021015 (P. Aeruginosa 08021015): — (no detectable activity in MIC assay in dose of 200 µg/mL or in trypsin inhibition assay at concentration of 160 μg/mL)
MIC Proteus mirabilis 1376 (Proteus mirabilis 1376): — (no detectable activity in MIC assay in dose of 200 µg/mL or in trypsin inhibition assay at concentration of 160 μg/mL)
MIC S. Aureus 08032615 (S. Aureus 08032615): — (no detectable activity in MIC assay in dose of 200 µg/mL or in trypsin inhibition assay at concentration of 160 μg/mL)
MIC S. Aureus 08032706 (S. Aureus 08032706): — (no detectable activity in MIC assay in dose of 200 µg/mL or in trypsin inhibition assay at concentration of 160 μg/mL)
MIC S. Aureus 08032810 (S. Aureus 08032810): — (no detectable activity in MIC assay in dose of 200 µg/mL or in trypsin inhibition assay at concentration of 160 μg/mL)
MIC S. Maltophilia 090223 (S. Maltophilia 090223): 4.69 µg/mL (≈ 1.32 µM)
MIC Vibrio brasiiensis (Vibrio brasiiensis): 4.69 µg/mL (≈ 1.32 µM)
MIC Vibrio cholerae (Vibrio cholerae): 9.38 µg/mL (≈ 2.64 µM)
MIC Vibrio harveyi (Vibrio harveyi): 18.75 µg/mL (≈ 5.27 µM)
MIC E. Coli 08032813 (E. Coli 08032813): — (no detectable activity in MIC assay in dose of 200 µg/mL or in trypsin inhibition assay at concentration of 160 μg/mL)
MIC Staphylococcus epidermidis [7]: — (no detectable activity in MIC assay in dose of 200 µg/mL or in trypsin inhibition assay at concentration of 160 μg/mL)
MIC Vibrio Parahaemolyticus (Vibrio Parahaemolyticus): 2.37 µg/mL (≈ 0.667 µM)
Ki (trypsin): 6.5 µM
time of killing toward E. coli (E. coli 08040726 [8]; 1xMIC): ≤ 2 h
time of killing toward E. coli (E. coli 08040726 [8]; 5xMIC): ≤ 0.5 h
damage of established C. albicans biofilm ([9]; 5 μg/mL, biofilm preformed 72 h, XTT metabolic activity, Fig. 2B): evident antifungal activity
killing of C. albicans in preformed biofilm ([9]; 50 μg/mL, PI/SYBR Green I staining, fluorescence microscopy, Fig. 2C): destroy all of the cell membranes
